Experimental data published in ChEMBL document CHEMBL1828558, “Discovery of (+)-N-(3-aminopropyl)-N-[1-(5-benzyl-3-methyl-4-oxo-[1,2]thiazolo[5,4-d]pyrimidin-6-yl)-2-methylpropyl]-4-methylbenzamide (AZD4877), a kinesin spindle protein inhibitor and potential anticancer agent” (J Med Chem, 2011).

Assays:
[1] = target: T1, Kinesin-like protein KIF11 (Homo sapiens, UniProt P52732); experiment: Inhibition of human recombinant C-terminal His6-tagged KSP ATPase activity after 1 hr by malachite green assay
T1 sequence (P52732 whole entry): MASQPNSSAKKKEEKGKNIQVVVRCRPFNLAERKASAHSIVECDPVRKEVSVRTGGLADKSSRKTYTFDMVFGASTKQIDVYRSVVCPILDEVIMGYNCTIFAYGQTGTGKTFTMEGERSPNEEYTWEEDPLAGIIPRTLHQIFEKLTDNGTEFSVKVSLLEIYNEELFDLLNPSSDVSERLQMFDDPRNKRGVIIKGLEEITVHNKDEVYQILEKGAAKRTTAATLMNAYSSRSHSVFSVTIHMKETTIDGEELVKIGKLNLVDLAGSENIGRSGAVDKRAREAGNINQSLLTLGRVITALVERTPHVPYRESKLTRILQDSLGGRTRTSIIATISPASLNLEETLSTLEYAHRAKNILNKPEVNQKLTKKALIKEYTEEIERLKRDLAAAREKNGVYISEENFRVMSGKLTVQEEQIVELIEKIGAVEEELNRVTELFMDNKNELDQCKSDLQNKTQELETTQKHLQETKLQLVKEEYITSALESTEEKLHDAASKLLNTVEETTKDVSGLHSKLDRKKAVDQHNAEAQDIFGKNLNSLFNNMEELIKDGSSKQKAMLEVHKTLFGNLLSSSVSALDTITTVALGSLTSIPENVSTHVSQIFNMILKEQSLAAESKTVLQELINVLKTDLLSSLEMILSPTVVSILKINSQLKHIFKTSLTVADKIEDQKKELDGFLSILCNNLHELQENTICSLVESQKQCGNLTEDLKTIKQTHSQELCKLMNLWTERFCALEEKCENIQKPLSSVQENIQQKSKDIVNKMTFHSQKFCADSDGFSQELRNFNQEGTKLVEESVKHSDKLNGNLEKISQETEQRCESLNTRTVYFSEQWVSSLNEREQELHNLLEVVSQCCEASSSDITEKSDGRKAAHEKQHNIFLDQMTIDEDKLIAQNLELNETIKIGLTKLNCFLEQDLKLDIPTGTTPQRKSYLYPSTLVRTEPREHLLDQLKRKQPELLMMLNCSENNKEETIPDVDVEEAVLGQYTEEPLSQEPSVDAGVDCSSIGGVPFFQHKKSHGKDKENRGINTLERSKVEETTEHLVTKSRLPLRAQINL

COLO 205 = experiment: Anticancer activity against human COLO205 cells after 72 hrs by MTS/PMS assay; assay type: functional, cell-based

Row | Compound | IC50 [1] [nM] | IC50 (COLO 205; Homo sapiens, COLO 205, 72 h) [nM] | IC50 (COLO 205; colo 205) [nM]
1 | Cc1ccc(C(=O)N(CCCN)C(c2nc3snc(C)c3c(=O)n2Cc2ccccc2)C(C)C)cc1F (single isomer, unassigned; (+)) | – | 10 | –
2 | CCC(NC(=O)c1ccc(C)cc1)c1nc2ccsc2c(=O)n1Cc1ccccc1 (stereo not drawn) | 9000 | – | –
3 | CCC(c1nc2ccsc2c(=O)n1Cc1ccccn1)N(CCCN)C(=O)c1ccc(C)cc1 (stereo not drawn) | 3500 | – | –
4 | CCC(c1nc2nccnc2c(=O)n1Cc1ccccc1)N(CCCN)C(=O)c1ccc(C)cc1 (stereo not drawn) | 5460 | – | –
5 | CCC(c1nc2ccsc2c(=O)n1Cc1ccccc1)N(CCCN)C(=O)C1CCC(OC)CC1 (stereo not drawn) | 9000 | – | –
6 | CCC(c1nc2ccsc2c(=O)n1Cc1ccccc1)N(CCCN)C(=O)c1ccc(OC(F)(F)F)cc1 (stereo not drawn) | 2460 | – | –
7 | CCC(c1nc2snc(C)c2c(=O)n1Cc1ccccc1)N(CCCN)C(=O)c1ccc(C)c(F)c1 (stereo not drawn) | – | 12 | –
8 | CCC(c1nc2ccsc2c(=O)n1Cc1ccccc1)N(CCCNC(C)=O)C(=O)c1ccc(C)cc1 (stereo not drawn) | 2920 | – | –
9 | CCC(c1nc2ccsc2c(=O)n1Cc1ccccc1)N(CCCN)C(=O)C1CCCC1 (stereo not drawn) | 4220 | – | –
10 | CCC(c1nc2ccsc2c(=O)n1Cc1ccncc1)N(CCCN)C(=O)c1ccc(C)cc1 (stereo not drawn) | 5310 | – | –
11 | CCC(c1nc2ccsc2c(=O)n1Cc1ccccc1)N(CCCN)C(=O)c1ccc(C#N)cc1 (stereo not drawn) | 2700 | – | –
12 | CCC(c1nc2ccsc2c(=O)n1Cc1cccnc1)N(CCCN)C(=O)c1ccc(C)cc1 (stereo not drawn) | 3800 | – | –
13 | CCC(c1nc2ccsc2c(=O)n1Cc1ccccc1)N(CCCN)C(=O)CC(C)C (stereo not drawn) | 4540 | – | –
14 | Cc1nsc2nc(C(C(C)C)N(CCCN)C(=O)c3ccc(Br)cc3)n(Cc3ccccc3)c(=O)c12 (stereo not drawn) | – | 6 | –
15 | CCC(c1nc2ccsc2c(=O)[nH]1)N(CCCN)C(=O)c1ccc(C)cc1 (stereo not drawn) | 9000 | – | –
16 | CCCCC(=O)N(CCCN)C(CC)c1nc2ccsc2c(=O)n1Cc1ccccc1 (stereo not drawn) | 5520 | – | –
17 | CCC(c1nc2ccsc2c(=O)n1Cc1ccccc1)N(CCCNC(=O)OC(C)(C)C)C(=O)c1ccc(C)cc1 (stereo not drawn) | 10000 | – | –
18 | Cc1ccc(C(=O)N(CCCN)C(c2nc3snc(C)c3c(=O)n2Cc2cccc(F)c2)C(C)C)cc1 (single isomer, unassigned; (+)) | – | 5 | –
19 | Cc1ccc(C(=O)N(CCCN)C(c2nc3snc(C)c3c(=O)n2Cc2ccc(F)cc2)C(C)C)cc1 (stereo not drawn) | – | 19 | –
20 | Cc1ccc(C(=O)N(CCCN)C(c2nc3snc(C)c3c(=O)n2Cc2ccccc2)C(C)C)cc1 (stereo in doubt; 65) [AZD-4877] | – | 2 | –
21 | CCC(c1nc2ccsc2c(=O)n1Cc1ccccc1)N(CCCN)C(=O)C1CC1 (stereo not drawn) | 6700 | – | –
22 | CCC(c1nc2snc(C)c2c(=O)n1Cc1ccc(F)cc1)N(CCCN)C(=O)c1ccc(C)cc1 (stereo not drawn) | – | 105 | –
23 | CCC(c1nc2ccsc2c(=O)n1Cc1cscn1)N(CCCN)C(=O)c1ccc(C)cc1 (stereo not drawn) | 9090 | – | –
24 | CCC(c1nc2ccsc2c(=O)n1Cc1ccccc1)N(CCCN)C(=O)C1COc2ccccc2O1 (stereo not drawn) | 2310 | – | –
25 | CCC(c1nc2ccsc2c(=O)n1Cc1ccccc1)N(CCCN)C(=O)c1ccc(C(=O)OC)cc1 (stereo not drawn) | 5960 | – | –
26 | CCC(c1nc2ccsc2c(=O)n1Cc1ccccc1)N(CCCNS(C)(=O)=O)C(=O)c1ccc(C)cc1 (stereo not drawn) | 5990 | – | –
27 | CCC(c1nc2snc(C)c2c(=O)n1Cc1cccc(F)c1)N(CCCN)C(=O)c1ccc(C)cc1 (single isomer, unassigned; (+)) | – | 13 | –
28 | CCC(c1nc2ccsc2c(=O)n1Cc1ccccc1)N(CCCN)C(=O)c1ccc2nccnc2c1 (stereo not drawn) | 3210 | – | –
29 | CCC(c1nc2snc(C)c2c(=O)n1Cc1ccccc1)N(CCCN)C(=O)c1ccc(Br)cc1 (stereo not drawn) | – | 14 | –

Continued by falling IC50 [1], values first:

Row | IC50 [1] [nM] | IC50 (COLO 205; Homo sapiens, COLO 205, 72 h) [nM] | IC50 (COLO 205; colo 205) [nM] | Compound
30 | 1900 | – | – | CCC(c1nc2sccc2c(=O)n1Cc1ccccc1)N(CCCN)C(=O)c1ccc(C)cc1 (single isomer, unassigned; (-))
31 | 1440 | 10000 | – | CCC(c1nc2ccsc2c(=O)n1Cc1ccccc1)N(CC1CCNCC1)C(=O)c1ccc(C)cc1 (stereo not drawn)
32 | 1390 | – | – | CCC(c1nc2ccsc2c(=O)n1Cc1ccccc1)N(CCCN)C(=O)c1ccno1 (stereo not drawn)
33 | 1070 | 1290 | – | CCC(c1nc2ccsc2c(=O)n1Cc1ccccc1)N(C(=O)c1ccc(C)cc1)C1CCNCC1 (stereo not drawn)
34 | 1060 | – | – | CCC(c1nc2ccsc2c(=O)n1Cc1ccccc1)N(CCCN)C(=O)c1ccccc1C (stereo not drawn)
35 | 980 | 3690 | – | CCC(c1nc2ccsc2c(=O)n1Cc1ccccc1)N(CCCN)C(=O)c1ccc(C)nc1 (stereo not drawn)
36 | 940 | 3300 | – | CCC(c1nc2ccsc2c(=O)n1Cc1ccccc1)N(CCCN)C(=O)c1ccc(C(C)C)cc1 (stereo not drawn)
37 | 760 | 3080 | – | CCC(c1nc2ccsc2c(=O)n1CC1CC1)N(CCCN)C(=O)c1ccc(C)cc1 (stereo not drawn)
38 | 610 | 860 | – | CCC(c1nc2ccsc2c(=O)n1Cc1ccccc1)N(CCCN)C(=O)c1ccccc1Cl (stereo not drawn)
39 | 500 | 1550 | – | CCC(c1nc2ccsc2c(=O)n1Cc1ccccc1)N(CCCN)C(=O)c1ccco1 (stereo not drawn)
40 | 429 | – | – | Cc1ccc(C(=O)N(CCCN)C(c2nc3snc(C)c3c(=O)n2Cc2ccccc2)C(C)C)cc1 (single isomer, unassigned; (-)) [AZD-4877]
41 | 410 | – | – | CCC(c1nc2ccsc2c(=O)n1Cc1ccccc1)N(CCCN)C(=O)c1sccc1C (stereo not drawn)
42 | 390 | 980 | – | CCC(c1nc2ccsc2c(=O)n1Cc1ccccc1)N(CCCCN)C(=O)c1ccc(C)cc1 (stereo not drawn)
43 | 323 | 1400 | – | CCC(c1nc2ncccc2c(=O)n1Cc1ccccc1)N(CCCN)C(=O)c1ccc(C)cc1 (stereo not drawn)
44 | 310 | 580 | – | CCC(c1nc2ccsc2c(=O)n1Cc1ccccc1)N(CCCN)C(=O)c1cccc(C(F)(F)F)c1 (stereo not drawn)
45 | 210 | 640 | – | CCC(c1nc2ccsc2c(=O)n1Cc1ccccc1)N(CCCN)C(=O)c1ccc(OC)cc1 (stereo not drawn)
46 | 210 | 1560 | – | CCC(c1nc2ccsc2c(=O)n1Cc1ccc(Cl)cc1)N(CCCN)C(=O)c1ccc(C)cc1 (stereo not drawn)
47 | 210 | 510 | – | CCC(c1nc2ccsc2c(=O)n1Cc1ccccc1)N(CCCN)C(=O)c1ccc(C(F)(F)F)cc1 (stereo not drawn)
48 | 200 | 680 | – | CCC(c1nc2ccsc2c(=O)n1Cc1ccccc1)N(CCCN)C(=O)c1ccccc1 (stereo not drawn)

Row | IC50 [1] [nM] | IC50 (COLO 205; Homo sapiens, COLO 205, 72 h) [nM] | IC50 (COLO 205; colo 205) [nM] | Compound
49 | 160 | 790 | – | CCC(c1nc2ccsc2c(=O)n1Cc1ccc(OC)cc1)N(CCCN)C(=O)c1ccc(C)cc1 (stereo not drawn)
50 | 150 | 260 | – | CCC(c1nc2ccsc2c(=O)n1Cc1ccccc1)N(CCCN)C(=O)c1ccc2c(c1)OCO2 (stereo not drawn)
51 | 150 | 310 | – | CCC(c1nc2ccsc2c(=O)n1Cc1ccccc1)N(CCCN)C(=O)c1ccc(Cl)cc1Cl (stereo not drawn)
52 | 141 | 763 | – | CCC(c1nc2sc(Br)cc2c(=O)n1Cc1ccccc1)N(CCCN)C(=O)c1ccc(C)cc1 (stereo not drawn)
53 | 140 | 1360 | – | CCC(c1nc2ccsc2c(=O)n1Cc1ccccc1F)N(CCCN)C(=O)c1ccc(C)cc1 (stereo not drawn)
54 | 130 | 650 | – | CCC(c1nc2ccsc2c(=O)n1Cc1ccc(C)cc1)N(CCCN)C(=O)c1ccc(C)cc1 (stereo not drawn)
55 | 90 | 250 | – | CCc1ccc(C(=O)N(CCCN)C(CC)c2nc3ccsc3c(=O)n2Cc2ccccc2)cc1 (stereo not drawn)
56 | 90 | 140 | – | CCC(c1nc2ccsc2c(=O)n1Cc1ccccc1)N(CCCN)C(=O)c1cccc(C)c1 (stereo not drawn)
57 | 85 | 464 | – | CCC(c1nc2sc(Cl)cc2c(=O)n1Cc1ccccc1)N(CCCN)C(=O)c1ccc(C)cc1 (stereo not drawn)
58 | 51 | – | – | CCC(c1nc2snc(C)c2c(=O)n1Cc1ccccc1)N(CCCN)C(=O)c1ccc(C)cc1 (single isomer, unassigned; (-))
59 | 50 | 200 | – | CCC(c1nc2ccsc2c(=O)n1Cc1ccccc1)N(CCCN)C(=O)c1ccc(Cl)cc1 (stereo not drawn)
60 | 40 | – | – | CCC(c1nc2ccsc2c(=O)n1Cc1ccccc1)N(CCCN)C(=O)c1cc2ccccc2s1 (stereo not drawn)
61 | 30 | 200 | – | CCC(c1nc2ccsc2c(=O)n1Cc1ccccc1)N(CCCN)C(=O)c1ccc2ccccc2c1 (stereo not drawn)
62 | 21 | 43 | – | CCC(c1nc2ccn(C)c2c(=O)n1Cc1ccccc1)N(CCCN)C(=O)c1ccc(C)cc1 (stereo not drawn)
63 | 20 | 60 | – | CCC(c1nc2ccsc2c(=O)n1Cc1ccccc1)N(CCCN)C(=O)c1ccc(C)c(F)c1 (stereo not drawn)
64 | 13 | 174 | – | CCC(c1nc2ccoc2c(=O)n1Cc1ccccc1)N(CCCN)C(=O)c1ccc(C)cc1 (stereo not drawn)
65 | 10 | 100 | – | CCC(c1nc2ccsc2c(=O)n1Cc1ccccc1)N(CCCN)C(=O)c1ccc(C)cc1 (stereo not drawn)
66 | 5 | 45 | – | CCC(c1nc2c(C)nsc2c(=O)n1Cc1ccccc1)N(CCCN)C(=O)c1ccc(C)cc1 (stereo not drawn)
67 | 3 | – | 8 | CCC(c1nc2sccc2c(=O)n1Cc1ccccc1)N(CCCN)C(=O)c1ccc(C)cc1 (single isomer, unassigned; (+))
